ChEMBL document CHEMBL1150975, “Biochemical and three-dimensional-structural study of the specific inhibition of protein kinase CK2 by [5-oxo-5,6-dihydroindolo-(1,2-a)quinazolin-7-yl]acetic acid (IQA)” (Biochem J, 2003)

Experiments:
[1] = biological target: Insulin-like growth factor 1 receptor (Homo sapiens) (UniProt P08069); test: Percent residual IGF-1R activity in the presence of 10uM inhibitor
[2] = biological target: Receptor-type tyrosine-protein kinase FLT3 (Homo sapiens) (UniProt P36888); test: Percent residual Flt-3 activity in the presence of 10uM inhibitor
[3] = biological target: Epidermal growth factor receptor (Homo sapiens) (UniProt P00533); test: Percent residual Her-1 activity in the presence of 10uM inhibitor
Chain of Epidermal growth factor receptor (Homo sapiens) (P00533 whole entry): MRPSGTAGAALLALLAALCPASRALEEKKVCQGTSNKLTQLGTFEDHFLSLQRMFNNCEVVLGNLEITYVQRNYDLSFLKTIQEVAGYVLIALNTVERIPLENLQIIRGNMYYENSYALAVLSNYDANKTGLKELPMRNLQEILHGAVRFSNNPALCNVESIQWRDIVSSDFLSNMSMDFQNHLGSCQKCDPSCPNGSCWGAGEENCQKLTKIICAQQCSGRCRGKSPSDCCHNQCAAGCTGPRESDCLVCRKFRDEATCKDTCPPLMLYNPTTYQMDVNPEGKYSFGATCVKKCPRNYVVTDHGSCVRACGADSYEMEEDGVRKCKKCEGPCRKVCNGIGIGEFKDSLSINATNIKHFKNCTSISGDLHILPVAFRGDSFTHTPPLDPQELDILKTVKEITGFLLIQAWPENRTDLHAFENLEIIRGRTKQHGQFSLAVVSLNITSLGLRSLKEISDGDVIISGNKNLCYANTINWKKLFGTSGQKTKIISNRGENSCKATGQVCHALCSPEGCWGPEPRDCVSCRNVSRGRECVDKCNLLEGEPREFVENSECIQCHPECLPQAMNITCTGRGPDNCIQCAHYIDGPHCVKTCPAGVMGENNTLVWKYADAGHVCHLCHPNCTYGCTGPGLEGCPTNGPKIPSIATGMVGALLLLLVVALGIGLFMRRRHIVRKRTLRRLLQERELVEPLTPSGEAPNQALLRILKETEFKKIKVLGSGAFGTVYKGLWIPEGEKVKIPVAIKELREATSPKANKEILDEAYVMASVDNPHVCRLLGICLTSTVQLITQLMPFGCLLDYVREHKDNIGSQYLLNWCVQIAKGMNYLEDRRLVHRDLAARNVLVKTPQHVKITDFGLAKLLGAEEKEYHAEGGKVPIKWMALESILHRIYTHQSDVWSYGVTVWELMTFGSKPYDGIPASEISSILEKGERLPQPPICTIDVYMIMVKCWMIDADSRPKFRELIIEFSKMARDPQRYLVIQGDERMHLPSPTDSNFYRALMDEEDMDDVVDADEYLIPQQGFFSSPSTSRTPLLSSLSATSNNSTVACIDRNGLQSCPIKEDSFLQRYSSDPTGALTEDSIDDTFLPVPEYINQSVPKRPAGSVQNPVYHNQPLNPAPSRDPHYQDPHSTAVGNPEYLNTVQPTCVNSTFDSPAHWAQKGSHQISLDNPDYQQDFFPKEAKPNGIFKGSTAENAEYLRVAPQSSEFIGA

Chain of Receptor-type tyrosine-protein kinase FLT3 (Homo sapiens) (P36888 whole entry): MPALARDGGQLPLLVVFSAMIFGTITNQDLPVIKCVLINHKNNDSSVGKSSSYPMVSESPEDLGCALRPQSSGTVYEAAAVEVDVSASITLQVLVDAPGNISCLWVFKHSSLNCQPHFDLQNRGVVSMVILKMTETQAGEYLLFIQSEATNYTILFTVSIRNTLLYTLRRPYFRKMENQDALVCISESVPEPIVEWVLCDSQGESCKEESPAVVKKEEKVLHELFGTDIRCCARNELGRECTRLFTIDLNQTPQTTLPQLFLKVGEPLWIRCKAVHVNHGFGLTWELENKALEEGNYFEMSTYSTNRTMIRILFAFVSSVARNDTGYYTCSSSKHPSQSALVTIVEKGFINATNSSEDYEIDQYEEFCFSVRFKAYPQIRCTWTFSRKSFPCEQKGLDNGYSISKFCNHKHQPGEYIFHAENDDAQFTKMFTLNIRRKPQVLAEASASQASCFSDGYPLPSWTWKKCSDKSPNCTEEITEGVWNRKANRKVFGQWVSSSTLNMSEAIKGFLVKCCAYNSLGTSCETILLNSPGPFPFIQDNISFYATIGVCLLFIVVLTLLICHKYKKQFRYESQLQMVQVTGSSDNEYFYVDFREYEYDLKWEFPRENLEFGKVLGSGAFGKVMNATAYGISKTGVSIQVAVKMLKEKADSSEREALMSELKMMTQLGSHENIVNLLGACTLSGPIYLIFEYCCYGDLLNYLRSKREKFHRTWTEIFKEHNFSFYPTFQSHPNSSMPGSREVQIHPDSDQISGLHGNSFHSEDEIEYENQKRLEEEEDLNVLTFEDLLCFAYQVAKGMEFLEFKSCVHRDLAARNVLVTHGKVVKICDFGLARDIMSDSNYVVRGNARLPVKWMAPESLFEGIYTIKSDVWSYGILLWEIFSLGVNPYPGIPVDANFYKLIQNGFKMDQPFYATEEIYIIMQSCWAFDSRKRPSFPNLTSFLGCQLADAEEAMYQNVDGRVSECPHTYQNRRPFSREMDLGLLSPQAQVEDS
Chain of Insulin-like growth factor 1 receptor (Homo sapiens) (P08069 31-736 limits assumed): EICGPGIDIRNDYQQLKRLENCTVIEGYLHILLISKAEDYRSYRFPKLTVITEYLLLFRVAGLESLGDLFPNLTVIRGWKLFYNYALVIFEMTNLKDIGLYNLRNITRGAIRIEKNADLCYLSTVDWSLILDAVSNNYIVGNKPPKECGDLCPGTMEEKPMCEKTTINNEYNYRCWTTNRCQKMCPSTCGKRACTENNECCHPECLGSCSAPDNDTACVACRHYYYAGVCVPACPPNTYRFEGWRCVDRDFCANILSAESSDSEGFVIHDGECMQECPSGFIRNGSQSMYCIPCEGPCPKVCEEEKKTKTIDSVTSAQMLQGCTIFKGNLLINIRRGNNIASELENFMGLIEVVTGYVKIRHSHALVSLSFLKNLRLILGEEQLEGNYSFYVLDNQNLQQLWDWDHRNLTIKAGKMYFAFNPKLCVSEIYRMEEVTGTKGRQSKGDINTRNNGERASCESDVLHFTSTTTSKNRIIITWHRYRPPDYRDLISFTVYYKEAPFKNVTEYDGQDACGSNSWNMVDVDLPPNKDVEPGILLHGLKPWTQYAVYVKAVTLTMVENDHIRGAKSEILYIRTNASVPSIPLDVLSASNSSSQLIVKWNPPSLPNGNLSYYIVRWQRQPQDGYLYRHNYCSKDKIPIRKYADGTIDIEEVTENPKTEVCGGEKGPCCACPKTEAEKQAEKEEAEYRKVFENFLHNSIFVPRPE
Chain of Insulin-like growth factor 1 receptor (Homo sapiens) (P08069 741-1367 limits assumed): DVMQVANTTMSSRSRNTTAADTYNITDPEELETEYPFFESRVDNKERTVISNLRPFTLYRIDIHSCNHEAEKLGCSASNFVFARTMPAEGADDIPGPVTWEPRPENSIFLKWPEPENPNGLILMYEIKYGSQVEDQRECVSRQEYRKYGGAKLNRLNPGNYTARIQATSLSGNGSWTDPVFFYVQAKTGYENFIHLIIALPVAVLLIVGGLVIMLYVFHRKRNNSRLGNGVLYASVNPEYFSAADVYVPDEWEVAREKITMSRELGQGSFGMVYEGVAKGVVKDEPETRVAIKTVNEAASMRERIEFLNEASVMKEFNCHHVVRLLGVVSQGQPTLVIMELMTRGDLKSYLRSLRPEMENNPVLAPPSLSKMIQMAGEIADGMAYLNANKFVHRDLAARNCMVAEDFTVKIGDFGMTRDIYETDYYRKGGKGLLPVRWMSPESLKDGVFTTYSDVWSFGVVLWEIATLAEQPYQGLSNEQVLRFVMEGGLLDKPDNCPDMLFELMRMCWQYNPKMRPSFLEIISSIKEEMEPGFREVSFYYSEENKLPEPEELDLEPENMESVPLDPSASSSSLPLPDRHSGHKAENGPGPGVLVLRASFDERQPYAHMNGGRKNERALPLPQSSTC

Activity [1]: 80%
Activity [2]: 80%
Activity [3]: 80%
Compound: O=C(O)Cc1c2ccccc2n2c1[nH]c(=O)c1ccccc12
